# Like-named read-outs stand apart in the source and are kept apart here.
# Experiments:
# P. infestans = format: in vivo, Phytophthora infestans; settings: BABA 0.3 g/l; Desiree, Bintje, Ovatio; 6 dpi
# [1] = test system: Pathogenesis-related protein (PR-1); format: in vivo, Solanum tuberosum; settings: BABA 0.3 g/l; all three genotypes
smiles,measurement,setting,value
"CC(N)CC(=O)O (stereo not drawn) [BABA, β-aminobutyric acid]","effect on lesion size, SBE compared with BABA-treated plants",P. infestans,not significantly different
same,necrotic dots or lesions on treated plants,"Bintje, BABA treatment (0.3 g/l)",no such lesions were observed
same,necrotic dots or lesions on treated plants,"Desiree, two days after BABA treatment (0.3 g/l)",Small necrotic dots or lesions
same,PR-1 protein induction compared with SBE,[1],stronger

# Reference: US9681669B2 (priority 2012, dated 2017)
